Measured values reported in patent US12162840B2, “Herbicidal compositions” (SYNGENTA PARTICIPATIONS AG, priority 2018, dated 2024).

Columns and labels:
Format in all cases: in vivo
[1] = test system: cool season plant species; assay: B2 Post-emergence efficacy Test 2, cool season plant species; conditions: 15 days after application, 0=no damage, 100=total kill
How it was run: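 Plants at 12 days post-sowing were sprayed with active ingredient formulated in IF50 plus 0.2% v/v Genapol XO80, then grown in a glasshouse (24/18 °C or 20/16 °C day/night, 16 h light, 65% humidity). Damage scored 15 days after application on 0–100 scale (100 = total kill).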

[2] = test system: Echinochloa crus-galli (ECHCG); assay: B1 Post-emergence efficacy Test 1; conditions: post-emergence application, 1000 g/ha, evaluated after 13 days
How it was run: (§1)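 Plants sprayed 8 days after sowing with compound at 1000 g/ha in acetone/water (50:50) with 0.5% Tween 20; glasshouse at 24/16 °C day/night, 14 h light, 65% humidity. Damage scored 13 days later on a five-point scale (5=80-100% to 1=0-19%).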

[3] = test system: Ipomoea hederacea (IPOHE); assay: B1 Post-emergence efficacy Test 1; conditions: post-emergence application, 1000 g/ha, evaluated after 13 days
How it was run: as §1

[4] = test system: Amaranthus retoflexus (AMARE); assay: B1 Post-emergence efficacy Test 1; conditions: post-emergence application, 1000 g/ha, evaluated after 13 days
How it was run: as §1

Solanum nigrum (SOLNI) = assay: B1 Post-emergence efficacy Test 1; conditions: post-emergence application, 1000 g/ha, evaluated after 13 days
How it was run: as §1

Lolium perenne (LOLPE) = assay: B1 Post-emergence efficacy Test 1; conditions: post-emergence application, 1000 g/ha, evaluated after 13 days
How it was run: as §1

Setaria faberi (SETFA) = assay: B1 Post-emergence efficacy Test 1; conditions: post-emergence application, 1000 g/ha, evaluated after 13 days
How it was run: as §1

Q: For Cc1nn(C)c(=O)c(-c2c(F)ccc(Cl)c2CCc2ccc(Cl)cc2)c1OC(=O)C(C)C [Compound 1.089], which “Herbicidal activity (0-100 scale) ALOMY” value ([1]; 15 g/Ha) is on record?
A: 20

Q: What about the “Herbicidal activity (0-100 scale) ALOMY” value ([1]; 30 g/Ha) of the same compound?
A: 50

Q: And the “Herbicidal activity (0-100 scale) ALOMY” value ([1]; 60 g/Ha)?
A: 50

Q: And the “Herbicidal activity (0-100 scale) ALOMY” value ([1]; 125 g/Ha)?
A: 80

Q: And the “Herbicidal activity (0-100 scale) ALOMY” value ([1]; 250 g/Ha)?
A: 80

Q: What about the “Herbicidal activity (0-100 scale) ALOMY” value ([1]; 500 g/Ha) of the same compound?
A: 90

Q: And the “Herbicidal activity (0-100 scale) AVEFA” value ([1]; 15 g/Ha)?
A: 30

Q: What about the “Herbicidal activity (0-100 scale) AVEFA” value ([1]; 30 g/Ha) of the same compound?
A: 70

Q: What about the “Herbicidal activity (0-100 scale) AVEFA” value ([1]; 60 g/Ha) of the same compound?
A: 70

Q: And the “Herbicidal activity (0-100 scale) AVEFA” value ([1]; 125 g/Ha)?
A: 80

Q: What about the “Herbicidal activity (0-100 scale) AVEFA” value ([1]; 250 g/Ha) of the same compound?
A: 90

Q: And the “Herbicidal activity (0-100 scale) AVEFA” value ([1]; 500 g/Ha)?
A: 90

Q: What about the “Herbicidal activity (0-100 scale) BEAVA” value ([1]; 15 g/Ha) of the same compound?
A: 90

Q: What about the “Herbicidal activity (0-100 scale) BEAVA” value ([1]; 30 g/Ha) of the same compound?
A: 80

Q: And the “Herbicidal activity (0-100 scale) BEAVA” value ([1]; 60 g/Ha)?
A: 80

Q: What about the “Herbicidal activity (0-100 scale) BEAVA” value ([1]; 125 g/Ha) of the same compound?
A: 80

Q: And the “Herbicidal activity (0-100 scale) BEAVA” value ([1]; 250 g/Ha)?
A: 90

Q: What about the “Herbicidal activity (0-100 scale) BEAVA” value ([1]; 500 g/Ha) of the same compound?
A: 90

Q: What about the “Herbicidal activity (0-100 scale) BROTE” value ([1]; 15 g/Ha) of the same compound?
A: 0

Q: What about the “Herbicidal activity (0-100 scale) BROTE” value ([1]; 30 g/Ha) of the same compound?
A: 0

Q: What about the “Herbicidal activity (0-100 scale) BROTE” value ([1]; 60 g/Ha) of the same compound?
A: 10

Q: And the “Herbicidal activity (0-100 scale) BROTE” value ([1]; 125 g/Ha)?
A: 30

Q: What about the “Herbicidal activity (0-100 scale) BROTE” value ([1]; 250 g/Ha) of the same compound?
A: 60

Q: What about the “Herbicidal activity (0-100 scale) BROTE” value ([1]; 500 g/Ha) of the same compound?
A: 70

Q: And the “Herbicidal activity (0-100 scale) BRSNN” value ([1]; 15 g/Ha)?
A: 80

Q: What about the “Herbicidal activity (0-100 scale) BRSNN” value ([1]; 30 g/Ha) of the same compound?
A: 80

Q: What about the “Herbicidal activity (0-100 scale) BRSNN” value ([1]; 60 g/Ha) of the same compound?
A: 90

Q: And the “Herbicidal activity (0-100 scale) BRSNN” value ([1]; 125 g/Ha)?
A: 90

Q: And the “Herbicidal activity (0-100 scale) BRSNN” value ([1]; 250 g/Ha)?
A: 90

Q: And the “Herbicidal activity (0-100 scale) BRSNN” value ([1]; 500 g/Ha)?
A: 90

Q: And the “Herbicidal activity (0-100 scale) CHEAL” value ([1]; 15 g/Ha)?
A: 80

Q: And the “Herbicidal activity (0-100 scale) CHEAL” value ([1]; 30 g/Ha)?
A: 90

Q: And the “Herbicidal activity (0-100 scale) CHEAL” value ([1]; 60 g/Ha)?
A: 90

Q: What about the “Herbicidal activity (0-100 scale) CHEAL” value ([1]; 125 g/Ha) of the same compound?
A: 100

Q: What about the “Herbicidal activity (0-100 scale) CHEAL” value ([1]; 250 g/Ha) of the same compound?
A: 100

Q: What about the “Herbicidal activity (0-100 scale) CHEAL” value ([1]; 500 g/Ha) of the same compound?
A: 100

Q: And the “Herbicidal activity (0-100 scale) GALAP” value ([1]; 15 g/Ha)?
A: 10

Q: And the “Herbicidal activity (0-100 scale) GALAP” value ([1]; 30 g/Ha)?
A: 20

Q: And the “Herbicidal activity (0-100 scale) GALAP” value ([1]; 125 g/Ha)?
A: 30

Q: And the “Herbicidal activity (0-100 scale) GALAP” value ([1]; 250 g/Ha)?
A: 30

Q: And the “Herbicidal activity (0-100 scale) GALAP” value ([1]; 500 g/Ha)?
A: 90

Q: And the “Herbicidal activity (0-100 scale) HORVW” value ([1]; 15 g/Ha)?
A: 10

Q: And the “Herbicidal activity (0-100 scale) HORVW” value ([1]; 30 g/Ha)?
A: 10

Q: What about the “Herbicidal activity (0-100 scale) HORVW” value ([1]; 60 g/Ha) of the same compound?
A: 20

Q: What about the “Herbicidal activity (0-100 scale) HORVW” value ([1]; 125 g/Ha) of the same compound?
A: 20

Q: And the “Herbicidal activity (0-100 scale) HORVW” value ([1]; 250 g/Ha)?
A: 30

Q: And the “Herbicidal activity (0-100 scale) HORVW” value ([1]; 500 g/Ha)?
A: 60

Q: And the “Herbicidal activity (0-100 scale) KCHSC” value ([1]; 15 g/Ha)?
A: 10

Q: What about the “Herbicidal activity (0-100 scale) KCHSC” value ([1]; 30 g/Ha) of the same compound?
A: 20

Q: And the “Herbicidal activity (0-100 scale) KCHSC” value ([1]; 60 g/Ha)?
A: 50

Q: And the “Herbicidal activity (0-100 scale) KCHSC” value ([1]; 125 g/Ha)?
A: 60

Q: And the “Herbicidal activity (0-100 scale) KCHSC” value ([1]; 250 g/Ha)?
A: 60

Q: What about the “Herbicidal activity (0-100 scale) KCHSC” value ([1]; 500 g/Ha) of the same compound?
A: 60

Q: What about the “Herbicidal activity (0-100 scale) LOLPE” value ([1]; 15 g/Ha) of the same compound?
A: 40

Q: What about the “Herbicidal activity (0-100 scale) LOLPE” value ([1]; 30 g/Ha) of the same compound?
A: 70

Q: What about the “Herbicidal activity (0-100 scale) LOLPE” value ([1]; 60 g/Ha) of the same compound?
A: 80

Q: What about the “Herbicidal activity (0-100 scale) LOLPE” value ([1]; 125 g/Ha) of the same compound?
A: 90

Q: What about the “Herbicidal activity (0-100 scale) LOLPE” value ([1]; 250 g/Ha) of the same compound?
A: 90

Q: And the “Herbicidal activity (0-100 scale) LOLPE” value ([1]; 500 g/Ha)?
A: 90

Q: And the “Herbicidal activity (0-100 scale) POAAN” value ([1]; 15 g/Ha)?
A: 20

Q: What about the “Herbicidal activity (0-100 scale) POAAN” value ([1]; 30 g/Ha) of the same compound?
A: 40

Q: And the “Herbicidal activity (0-100 scale) POAAN” value ([1]; 60 g/Ha)?
A: 70

Q: And the “Herbicidal activity (0-100 scale) POAAN” value ([1]; 125 g/Ha)?
A: 90

Q: What about the “Herbicidal activity (0-100 scale) POAAN” value ([1]; 250 g/Ha) of the same compound?
A: 80

Q: What about the “Herbicidal activity (0-100 scale) POAAN” value ([1]; 500 g/Ha) of the same compound?
A: 70

Q: What about the “Herbicidal activity (0-100 scale) SINAR” value ([1]; 15 g/Ha) of the same compound?
A: 70

Q: And the “Herbicidal activity (0-100 scale) SINAR” value ([1]; 30 g/Ha)?
A: 80

Q: What about the “Herbicidal activity (0-100 scale) SINAR” value ([1]; 60 g/Ha) of the same compound?
A: 90

Q: What about the “Herbicidal activity (0-100 scale) SINAR” value ([1]; 125 g/Ha) of the same compound?
A: 90

Q: And the “Herbicidal activity (0-100 scale) SINAR” value ([1]; 250 g/Ha)?
A: 90

Q: And the “Herbicidal activity (0-100 scale) SINAR” value ([1]; 500 g/Ha)?
A: 90

Q: What about the “Herbicidal activity (0-100 scale) STEME” value ([1]; 15 g/Ha) of the same compound?
A: 90

Q: What about the “Herbicidal activity (0-100 scale) STEME” value ([1]; 30 g/Ha) of the same compound?
A: 90

Q: And the “Herbicidal activity (0-100 scale) STEME” value ([1]; 60 g/Ha)?
A: 90

Q: And the “Herbicidal activity (0-100 scale) STEME” value ([1]; 125 g/Ha)?
A: 90

Q: And the “Herbicidal activity (0-100 scale) STEME” value ([1]; 250 g/Ha)?
A: 90

Q: And the “Herbicidal activity (0-100 scale) STEME” value ([1]; 500 g/Ha)?
A: 90

Q: And the “Herbicidal activity (0-100 scale) TRZAW” value ([1]; 15 g/Ha)?
A: 0

Q: And the “Herbicidal activity (0-100 scale) TRZAW” value ([1]; 30 g/Ha)?
A: 0

Q: What about the “Herbicidal activity (0-100 scale) TRZAW” value ([1]; 60 g/Ha) of the same compound?
A: 20

Q: And the “Herbicidal activity (0-100 scale) TRZAW” value ([1]; 125 g/Ha)?
A: 30

Q: What about the “Herbicidal activity (0-100 scale) TRZAW” value ([1]; 250 g/Ha) of the same compound?
A: 60

Q: And the “Herbicidal activity (0-100 scale) TRZAW” value ([1]; 500 g/Ha)?
A: 70

Q: What about the “Herbicidal activity (0-100 scale) VERPE” value ([1]; 15 g/Ha) of the same compound?
A: 70

Q: What about the “Herbicidal activity (0-100 scale) VERPE” value ([1]; 30 g/Ha) of the same compound?
A: 80

Q: What about the “Herbicidal activity (0-100 scale) VERPE” value ([1]; 60 g/Ha) of the same compound?
A: 90

Q: And the “Herbicidal activity (0-100 scale) VERPE” value ([1]; 125 g/Ha)?
A: 90

Q: And the “Herbicidal activity (0-100 scale) VERPE” value ([1]; 250 g/Ha)?
A: 100

Q: What about the “Herbicidal activity (0-100 scale) VERPE” value ([1]; 500 g/Ha) of the same compound?
A: 100

Q: What about the “percentage damage caused to the plant, five point scale, ECHCG” value [2] of the same compound?
A: 5 (5=80-100%)

Q: And the “percentage damage caused to the plant, five point scale, IPOHE” value [3]?
A: 5 (5=80-100%)

Q: What about the “percentage damage caused to the plant, five point scale, AMARE” value [4] of the same compound?
A: 5 (5=80-100%)

Q: What about the “percentage damage caused to the plant, five point scale, SOLNI” value (Solanum nigrum (SOLNI)) of the same compound?
A: 5 (5=80-100%)

Q: What about the “percentage damage caused to the plant, five point scale, LOLPE” value (Lolium perenne (LOLPE)) of the same compound?
A: 5 (5=80-100%)

Q: What about the “percentage damage caused to the plant, five point scale, SETFA” value (Setaria faberi (SETFA)) of the same compound?
A: 5 (5=80-100%)
